The text below walks through data of article PMC8088928 (Cancer Science, 2021).

The target in test [1] is Recombinant Human Her2/ErbB2 Protein (Homo sapiens, UniProt P04626). As to the kind of experiment: Microscale thermophoresis. It counts as binding. A general note: MST reads how a fluorescent partner responds to local heating, with and without ligand.
The test system of a further test is MKN‐45 cells. The test can be described thus: CCK‐8 cytotoxicity / proliferation assay. The test is classed as cell-based, human. Particulars: for IC50: Homo sapiens, MKN-45, 72 h, read-out: IC50 (cytotoxic activity); for Effect on proliferation of tumor cells (in words): MKN‐45 cells, 72 h, CCK‐8.
The next test has as its target Human PD‐L1 Fc Protein (Homo sapiens, UniProt Q9NZQ7). As to the kind of experiment: Microscale thermophoresis. It counts as binding.
The target of a further test is HER2 kinase (Homo sapiens, UniProt P04626). As to the kind of experiment: Enzyme activity assay of HER2. It counts as biochemical.

The structures appear in SMILES notation.

Sequence of Recombinant Human Her2/ErbB2 Protein (P04626 23-1255): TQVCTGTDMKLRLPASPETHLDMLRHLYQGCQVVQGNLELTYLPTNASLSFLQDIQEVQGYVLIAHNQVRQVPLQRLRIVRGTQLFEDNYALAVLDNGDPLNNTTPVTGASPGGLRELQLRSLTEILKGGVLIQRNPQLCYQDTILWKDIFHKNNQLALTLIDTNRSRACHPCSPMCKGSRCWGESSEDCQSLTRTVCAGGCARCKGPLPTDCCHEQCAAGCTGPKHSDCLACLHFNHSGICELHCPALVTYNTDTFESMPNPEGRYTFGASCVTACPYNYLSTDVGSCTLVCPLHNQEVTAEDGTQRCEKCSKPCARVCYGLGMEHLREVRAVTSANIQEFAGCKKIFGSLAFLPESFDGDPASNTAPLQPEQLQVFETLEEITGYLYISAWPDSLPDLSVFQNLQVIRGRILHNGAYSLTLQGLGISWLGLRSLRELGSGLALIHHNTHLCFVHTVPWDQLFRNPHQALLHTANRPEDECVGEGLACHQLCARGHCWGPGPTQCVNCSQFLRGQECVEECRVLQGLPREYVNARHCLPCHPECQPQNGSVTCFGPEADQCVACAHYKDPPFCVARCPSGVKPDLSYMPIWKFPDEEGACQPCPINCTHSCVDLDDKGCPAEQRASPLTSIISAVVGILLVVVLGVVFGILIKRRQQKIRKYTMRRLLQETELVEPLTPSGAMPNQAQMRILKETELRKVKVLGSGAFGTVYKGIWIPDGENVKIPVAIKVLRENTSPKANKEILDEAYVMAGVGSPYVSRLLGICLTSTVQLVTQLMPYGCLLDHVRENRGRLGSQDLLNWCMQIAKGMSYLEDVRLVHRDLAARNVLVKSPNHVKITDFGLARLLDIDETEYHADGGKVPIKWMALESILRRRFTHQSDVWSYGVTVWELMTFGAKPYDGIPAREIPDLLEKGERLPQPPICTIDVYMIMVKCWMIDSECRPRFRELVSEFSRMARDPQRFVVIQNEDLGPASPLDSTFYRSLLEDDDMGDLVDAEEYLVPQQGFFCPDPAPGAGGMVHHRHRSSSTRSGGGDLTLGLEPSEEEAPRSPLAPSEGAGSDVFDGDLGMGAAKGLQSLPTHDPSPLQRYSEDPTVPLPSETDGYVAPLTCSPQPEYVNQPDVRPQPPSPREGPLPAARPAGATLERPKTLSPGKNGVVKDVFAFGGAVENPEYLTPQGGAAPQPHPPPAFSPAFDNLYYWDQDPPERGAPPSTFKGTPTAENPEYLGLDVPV
Sequence of Human PD‐L1 Fc Protein (Q9NZQ7 19-238 limits assumed): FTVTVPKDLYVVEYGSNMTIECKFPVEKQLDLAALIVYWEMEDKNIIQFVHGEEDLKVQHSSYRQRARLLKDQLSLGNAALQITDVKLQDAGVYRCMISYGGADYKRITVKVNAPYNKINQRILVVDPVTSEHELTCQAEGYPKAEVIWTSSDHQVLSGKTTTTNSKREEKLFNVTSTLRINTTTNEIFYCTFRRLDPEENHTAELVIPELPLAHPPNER
Sequence of HER2 kinase (P04626 23-1255): as the sequence (P04626 23-1255) above

In general, Kd refers to the constant that tells how readily two partners part at equilibrium. As a reminder, the IC50 is the concentration needed to halve the response being measured. Take `O=c1c(-c2ccc(O)cc2)coc2cc(O)ccc12` [Daidzein]: the Kd in test [1] is 3700 nM. Further, in the test with MKN‐45 cells, the concentration for half-maximal inhibition (IC50) was determined as 21500 nM and the “Effect on proliferation of tumor cells (in words)” value (“Effect on proliferation” for short) was “potential antiproliferative effects”.
`COc1ccc(-c2coc3cc(O)ccc3c2=O)cc1` [Formononetin] returned a Kd on Human PD‐L1 Fc Protein of 355 nM. Also, in the test on MKN‐45 cells, the “Effect on proliferation” value is “could not inhibit proliferation of tumor cells”.
On Human PD‐L1 Fc Protein, `COc1cc(-c2oc3cc(O)cc(O)c3c(=O)c2O)ccc1O` [Isorhamnetin] came in with a dissociation constant (Kd) of 667 nM. Moreover, in the test on MKN‐45 cells, the IC50 came out at 10800 nM and the “Effect on proliferation” value was “potential antiproliferative effects”.
As to `O=c1c(O)c(-c2ccc(O)c(O)c2)oc2cc(O)cc(O)c12` [Quercetin], the Kd in test [1] came to 490 nM. The molecule also displayed a half-inhibitory concentration (IC50) on HER2 kinase of 570 nM. Also, in the test with MKN‐45 cells, the IC50 was found to be 19300 nM and the “Effect on proliferation” value was “potential antiproliferative effects”.
